In US20240225978A1, “METHODS AND COMPOSITIONS FOR PHARMACOLOGICAL TREATMENT OF BLEPHAROPTOSIS” (priority 2021, published 2024):
Structures can show the parent of a compound that is named as a salt.

Assays:
cosmetic blepharoptosis [1] = test: Controlled study of topical naphazoline 0.1% to improve cosmetic blepharoptosis; type: in vivo, human
Description: A comparative study was conducted to investigate the effect of an ophthalmic solution containing naphazoline 0.1% on cosmetic blepharoptosis. Two groups, the control group and treatment group each consisting of 5 subjects, were matched in terms of age and gender. The control group received one drop of normal saline while the treatment group received one drop of an ophthalmic solution containing naphazoline 0.1%. At both 30 minutes and 120 minutes after drop administration, external photographs were obtained and analyzed using Image J imaging software. MRD-1 and the distance between the upper and lower eyelid margins were measured to quantitatively assess cosmetic blepharoptosis. Secondary effects were also recorded, including conjunctival injection, eye pain or irritation, light sensitivity, and pupil size.

cosmetic blepharoptosis [2] = test: Case study of cosmetic blepharoptosis treatment with naphazoline 0.1%; type: in vivo, human
Description: They also had brow asymmetry due to compensatory right eyebrow elevation, a separate cosmetic concern. One drop of an ophthalmic solution containing naphazoline 0.1% was administered to the right eye. After 30 minutes, the eyelid was over-elevated with an MRD-1 of 5.5 mm due to continued compensatory brow elevation of the subject's right eyebrow (FIG. 5b). […] Three hours after drop administration, the eyelid and brow symmetry were maintained (FIG. 5d).

[3] = test system: functional blepharoptosis; test: Randomized, double-blinded, controlled study of blepharoptosis treatment with naphazoline 0.1% ophthalmic solution; type: in vivo, human
Description: To evaluate the effects of an ophthalmic solution containing an α adrenergic agonist on blepharoptosis, a randomized, double-blinded, controlled study was conducted using naphazoline 0.1%. Participants with either unilateral or bilateral upper eyelid blepharoptosis were randomized to receive either control eye drops (control group) or an ophthalmic solution containing active ingredient naphazoline 0.1% (treatment group).
The composition of the treatment group included naphazoline hydrochloride (concentration 0.1% w/v), sodium chloride, boric acid, calcium chloride, magnesium chloride, potassium chloride, sodium borate, PURITE®, methylcellulose, and purified water. The ophthalmic drops of the control group were composed of all of the preceding compounds except for naphazoline hydrochloride.
Baseline external photographs of all participants were obtained before eye drop administration. Visual field and contrast sensitivity testing were also tested at baseline. Visual field testing was conducted using an OCULUS Easyfield® perimeter. Contrast sensitivity was tested using a Pelli-Robson Contrast Sensitivity Chart (Pelli D G, Robson J, Wilkins A J. The design of a new letter chart for measuring contrast sensitivity. Clin Vision Sci. 1988; 2187-99). After one eye drop was administered to one or both eyes depending on the presence of unilateral or bilateral blepharoptosis, a second photo was obtained 30 minutes later. After 60 minutes, visual field and contrast sensitivity tests were repeated. After 120 minutes, a third and final photo was obtained.
MRD-1 is the distance in millimeters from the upper eyelid margin to the light reflex within the pupil. Measurements were made using Image J software (US National Institutes of Health, Bethesda, MD, U.S.A., http://imagej.nih.gov/ij) by a single designated, blinded investigator. The pupil diameter was also measured at all time points. Secondary effects were recorded and included subject-reported eye irritation, pain, blurry vision, light sensitivity, as well as examiner-noted eye injection, eyelid retraction, and pupil diameter. MRD-1 at the two post-administration time points constituted the primary endpoint. Secondary endpoints included visual field assessment and contrast sensitivity testing.

[4] = test system: α adrenergic receptors within Müller's muscle; conditions: ophthalmic use for pupil dilation; background statement; cited from earlier work
[5] = test system: functional blepharoptosis; test: Randomized, controlled study of blepharoptosis treatment with tetrahydrozoline 0.1% ophthalmic solution; type: in vivo, human
Description: To evaluate the effects of an ophthalmic solution containing an α adrenergic agonist (tetrahydrozoline) on blepharoptosis, a randomized, controlled study was conducted. Participants with both unilateral or bilateral blepharoptosis were randomized to receive either the control eye drop or an ophthalmic solution containing active ingredient tetrahydrozoline 0.1%. Subjects and drop administrators were blinded to the intervention. […] The composition of the treatment group included tetrahydrozoline hydrochloride (concentration 0.1% w/v), sodium chloride, boric acid, calcium chloride, magnesium chloride, potassium chloride, sodium borate, PURITE®, methylcellulose, and purified water. The ophthalmic drops of the control group were composed of all of the preceding compounds except for tetrahydrozoline hydrochloride. Baseline external photographs of all participants were obtained before eye drop administration. After one eye drop was administered, a second photo was obtained 30 minutes later. After 90 minutes, a third and final photo was obtained. The pupil diameter in millimeters was also measured in photos at all time points. Measurements were made using Image J software by a single designated, blinded investigator. Secondary effects from the intervention were recorded including subject-reported eye irritation, pain, blurry vision, light sensitivity, as well as examiner-noted eye injection, eyelid retraction, and pupil size change from baseline.

SMILES: c1ccc2c(CC3=NCCN3)cccc2c1 [Naphazoline, naphazoline hydrochloride]
- difference in secondary effects, including pupil size, between the two groups (cosmetic blepharoptosis [1]; 0.1% ophthalmic solution): no difference
- improvement in MRD-1 and eyelid separation compared to the control group (cosmetic blepharoptosis [1]; 0.1% ophthalmic solution, 30 and 120 minutes): statistically significant improvement
- MRD1 Δ 30 minutes (mean, %) (cosmetic blepharoptosis [1]; one drop 0.1% ophthalmic solution, 5 subjects, baseline MRD1 2.4 mm, control (normal saline) 3.8, P 0.01): 42%
- MRD1 Δ 120 minutes (mean, %) (cosmetic blepharoptosis [1]; one drop 0.1% ophthalmic solution, 5 subjects, control 1.9, P 0.02): 38%
- Eyelid Margin Distance Δ 120 minutes (mean, mm) (cosmetic blepharoptosis [1]; one drop 0.1%, control 0.02, P 0.03): 1.33 mm
- Pupil Size Δ 30 minutes (mean, %) (cosmetic blepharoptosis [1]; one drop 0.1%, control 6.7, P 0.37): 10%
- Minor Side Effects (%) (cosmetic blepharoptosis [1]; one drop 0.1%, control 20, P 0.49): 20%
- Eyelid Margin Distance Δ 30 minutes (mean, mm) (cosmetic blepharoptosis [1]; one drop 0.1%, distance between upper and lower eyelid margins, control 0.03, P 0.009): 1.45 mm
- eyelid and brow symmetry after brow relaxation (cosmetic blepharoptosis [2]; one drop 0.1%, FIG. 5c (120 minutes)): achieved both eyelid and brow symmetry
- eyelid and brow symmetry three hours after drop administration (cosmetic blepharoptosis [2]; one drop 0.1%, three hours): maintained
- MRD-1 of the right eye (cosmetic blepharoptosis [2]; subject, one drop 0.1% ophthalmic solution to the right eye, after 30 minutes, baseline 2.5 mm, eyelid over-elevated due to compensatory brow elevation): 5.5 mm
- difference in proportion of individuals who reported minor side effects, treatment vs control group ([3]; 0.1% ophthalmic solution): not statistically significant
- visual field and contrast sensitivity improvement compared to the control group ([3]; 0.1% ophthalmic solution, 60 minutes after drop): greater
- improvement in MRD-1 compared to the control group ([3]; 0.1% ophthalmic solution, at 30 minutes and 120 minutes): statistically significant improvement
- Contrast Sensitivity Δ (mean) ([3]; Pelli-Robson chart, 60 minutes after one drop 0.1%, baseline 1.29, control 0.03, P 0.03): 0.69
- MRD1 Δ 30 minutes (mean, mm) ([3]; one drop of 0.1% w/v ophthalmic solution, 19 subjects, baseline MRD1 0.93 mm, 30 minutes after drop, control 0.02, P <0.001): 2.15 mm
- MRD1 Δ 120 minutes (mean, mm) ([3]; one drop of 0.1% w/v ophthalmic solution, 19 subjects, 120 minutes after drop, control 0.01, P 0.009): 2.08 mm
- overall effect on eyelids, visual field, contrast sensitivity and cosmetic appearance ([3]; one drop of ophthalmic composition 0.1% administered twice daily (as summarised in b67 for Example 1)): resulted in eyelid elevation, improvement of a superior visual field defect, increased contrast sensitivity, and improved cosmetic appearance of the eyes, eyelids, and eyebrows
- Secondary Effects (%) ([3]; proportion of subjects, one drop 0.1%, control 9.5, P 0.17): 10.5%
- VF Δ (mean, % correct) ([3]; visual field, OCULUS Easyfield perimeter, 60 minutes after one drop 0.1%, baseline 33.8, control 2.1, P <0.001): 56.6 % correct

SMILES: CNC[C@H](O)c1cccc(O)c1 [phenylephrine]
- duration of pupillary dilation and disabling light sensitivity [4]: up to seven hours
- duration of the effect of eyelid elevation [4]: less than ten minutes

SMILES: c1ccc2c(c1)CCCC2C1=NCCN1 (centres unmarked) [Tetrahydrozoline, tetrahydrozoline hydrochloride]
- difference in proportion of individuals who reported minor side effects, treatment vs control group ([5]; 0.1% ophthalmic solution): not statistically significant
- pupillary size change compared to the control ([5]; 0.1% ophthalmic solution): greater in the treatment group compared to the control, however, this change was not statistically significant
- blepharoptosis improvement compared to the control group ([5]; 0.1% ophthalmic solution, both time points): statistically significant at both time points
- Minor Side Effects (%) ([5]; one drop 0.1%, control 2.1, P 0.07): 6.7%
- Pupil Size Δ 30 minutes (mean, %) ([5]; one drop 0.1%, control 5.8, P 0.09): 9.3%
- MRD1 Δ 30 minutes (mean, mm) ([5]; one drop of 0.1% w/v ophthalmic solution, 11 subjects, baseline MRD1 0.85 mm, control 0.04, P 0.01): 2.01 mm
- MRD1 Δ 120 minutes (mean, mm) ([5]; one drop of 0.1% w/v ophthalmic solution, 11 subjects, control 0.02, P 0.009): 1.97 mm
